Each compound was assayed against T1, recombinant human tissue transglutaminase (rhTG2) (Homo sapiens, UniProt P21980) (assay: Inhibition of rec. human tissue transglutaminase (fluorescence, Abz-APE(CAD-DNP)QEA-OH)). Conditions: Table 2, TG2 inhibitors.
T1 construct: purchased Zedira 1022 (so in the source); T022)
T1 sequence (P21980 1-687): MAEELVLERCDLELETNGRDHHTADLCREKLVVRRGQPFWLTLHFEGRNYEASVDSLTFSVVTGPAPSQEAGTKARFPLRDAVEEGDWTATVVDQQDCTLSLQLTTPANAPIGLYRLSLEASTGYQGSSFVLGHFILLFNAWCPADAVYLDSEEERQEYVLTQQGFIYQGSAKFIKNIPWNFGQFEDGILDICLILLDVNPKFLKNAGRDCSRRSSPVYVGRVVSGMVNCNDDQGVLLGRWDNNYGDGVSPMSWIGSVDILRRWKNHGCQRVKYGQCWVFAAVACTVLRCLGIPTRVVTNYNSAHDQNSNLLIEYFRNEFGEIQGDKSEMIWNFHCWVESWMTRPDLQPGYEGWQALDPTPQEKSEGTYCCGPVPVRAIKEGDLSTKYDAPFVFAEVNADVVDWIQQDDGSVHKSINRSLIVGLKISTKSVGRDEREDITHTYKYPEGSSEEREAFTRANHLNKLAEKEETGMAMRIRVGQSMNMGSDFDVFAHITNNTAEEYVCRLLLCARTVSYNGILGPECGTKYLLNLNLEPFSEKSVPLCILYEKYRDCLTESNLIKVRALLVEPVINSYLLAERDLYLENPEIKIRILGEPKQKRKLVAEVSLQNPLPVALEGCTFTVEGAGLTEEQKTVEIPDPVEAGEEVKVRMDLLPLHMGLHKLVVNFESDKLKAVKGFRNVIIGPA
Type: biochemical
Protocol: Method for Inhibition Studies of Rec. Human Tissue Transglutaminase (rhTG2)
250 μg lyophilized His-tagged recombinant human tissue transglutaminase (His6-rhTG2, Zedira product 1022) is reconstituted in H2O (volume depends on original volume before lyophilization) resulting in a buffer containing 10 mM Tris-HCl, 150 mM NaCl, 1 mM EDTA, 5 mM DTT, 189 mg/ml maltodextrin, pH=8.1. The rhTG2 stock solution is diluted in buffer (50 mM Tris-HCl, 7.5 mM CaCl2, 150 mM NaCl, pH=7.4) to give a working solution of 100 U/ml (based on the amine-incorporation activity measured using T036, described below).
A 10 mM inhibitor stock solution is prepared in DMSO, and from this stock solution a serial 1:2-fold dilution series is prepared, also in DMSO. Each of these initial dilutions is subsequently diluted 1:50-fold with buffer (50 mM Tris-HCl, 7.5 mM CaCl2, 150 mM NaCl, pH=7.4) to yield the final working dilutions containing 2% (v/v) DMSO. 15 μl of inhibitor working dilution are added per well of a 96 well microtiter plate. As control, 15 μl of a 2% (v/v) DMSO solution prepared using the buffer mentioned above are added per well.
600 μl of His6-rhTG2 working solution are added to 11.4 ml assay buffer (50 mM Iris-HCl, 7.5 mM CaCl2, 150 mM NaCl, 5 mM DTI, 13.4 mM glycine methylester, 50 μM Abz-APE(CAD-DNP)QEA-OH, (Zedira product A102; patent No.: EP 1781807B1), pH=7.4). From this master-mix solution, 285 μl are added per well containing the inhibitor. Increase in fluorescence is measured using λex=313 nm and λem=418 nm at 37° C. for 20 min. A slope of the increase in fluorescence between 10 and 20 min is calculated for determination of the IC50 value (inhibitor concentration at which 50% of the initial TG2 activity is blocked).
Analysis of enzymatic activity is performed by calculation of the slope of an increase in fluorescence intensity. IC50 values are calculated by plotting the enzymatic activity (as percentage from control containing 2% DMSO instead of inhibitor) against the inhibitor concentration. IC50 is defined as the inhibitor concentration blocking 50%) of initial enzyme activity.

Row | IC50 [nM] | SMILES
1 | 60 | CCC(CC)CNC(=O)Cn1cccc(NC(=O)[C@H](CCC(=O)C(=O)NC)NC(=O)[C@@H]2CC(=O)CN2)c1=O [Compound E60, (S)—N1-(1-(2-(2-ethylbutylamino)-2-oxoethyl)-2-oxo-1,2-dihydropyridin-3-yl)-N6-methyl-5-oxo-2-((S)-4-oxopyrrolidine-2-carboxamido)hexanediamide]
2 | 80 | CCC(CC)CNC(=O)Cn1cccc(NC(=O)[C@H](CCC(=O)C(=O)NC)NC(=O)c2ccoc2)c1=O [Compound E61, (S)—N1-(1-(2-(2-ethylbutylamino)-2-oxoethyl)-2-oxo-1,2-dihydropyridin-3-yl)-2-(furan-3-carboxamido)-N6-methyl-5-oxohexanediamide]
3 | 70 | CCC(CC)CNC(=O)Cn1cccc(NC(=O)[C@H](CCC(=O)C(=O)NC)NC(=O)c2cnco2)c1=O [Compound E62, (S)—N1-(1-(2-(2-ethylbutylamino)-2-oxoethyl)-2-oxo-1,2-dihydropyridin-3-yl)-N6-methyl-2-(oxazole-5-carboxamido)-5-oxohexanediamide]
4 | 80 | CCC(CC)CNC(=O)Cn1cccc(NC(=O)[C@H](CCC(=O)C(=O)NC)NC(=O)C2CCN(C)CC2)c1=O [Compound E63, (S)—N1-(1-(2-(2-ethylbutylamino)-2-oxoethyl)-2-oxo-1,2-dihydropyridin-3-yl)-N6-methyl-2-(1-methylpiperidine-4-carboxamido)-5-oxohexanediamide]
5 | 95 | CCC(CC)CNC(=O)Cn1cccc(NC(=O)[C@H](CCC(=O)C(=O)NC)NC(=O)c2cncnc2)c1=O [Compound E64, (S)—N1-(1-(2-(2-ethylbutylamino)-2-oxoethyl)-2-oxo-1,2-dihydropyridin-3-yl)-N6-methyl-5-oxo-2-(pyrimidine-5-carboxamido)hexanediamide]
6 | 65 | CCC(CC)CNC(=O)Cn1cccc(NC(=O)[C@H](CCC(=O)C(=O)NC)NC(=O)c2cnc3ccccc3n2)c1=O [Compound E65, (S)—N1-(1-(2-(2-ethylbutylamino)-2-oxoethyl)-2-oxo-1,2-dihydropyridin-3-yl)-N6-methyl-5-oxo-2-(quinoxaline-2-carboxamido)hexanediamide]
7 | 120 | CCC(CC)CNC(=O)Cn1cccc(NC(=O)[C@H](CCC(=O)C(=O)NC)NS(=O)(=O)c2sc(C)nc2C)c1=O [Compound E66, (S)-2-(2,4-dimethylthiazole-5-sulfonamido)-N1-(1-(2-(2-ethylbutylamino)-2-oxoethyl)-26 oxo-1,2-dihydropyridin-3-yl)-N6-methyl-5-oxohexanediamide]
8 | 150 | CCC(CC)CNC(=O)Cn1cccc(NC(=O)[C@H](CCC(=O)C(=O)NC)NS(=O)(=O)c2c(Cl)nc3sccn23)c1=O [Compound E67, (S)-2-(6-chloroimidazo[2,1-b]thiazole-5-sulfonamido)-N1-(1-(2-(2-ethylbutylamino)-2-oxoethyl)-2-oxo-1,2-dihydropyridin-3-yl)-N6-methyl-5-oxohexanediamide]
9 | 150 | CCC(CC)CNC(=O)Cn1cccc(NC(=O)[C@H](CCC(=O)C(=O)NC)NS(=O)(=O)c2nccn2C)c1=O [Compound E68, (S)—N1-(1-(2-(2-ethylbutylamino)-2-oxoethyl)-2-oxo-1,2-dihydropyridin-3-yl)-N6-methyl-2-(1-methyl-1H-imidazole-2-sulfonamido)-5-oxohexanediamide]

More lines, now with the values behind:

Row | SMILES | IC50 [nM]
10 | CCC(CC)CNC(=O)Cn1cc(Br)cc(NC(=O)[C@H](CCC(=O)C(=O)NC)NC(=O)c2cncn2C)c1=O [Compound E46, (S)—N1-(5-bromo-1-(2-(2-ethylbutylamino)-2-oxoethyl)-2-oxo-1,2-dihydropyridin-3-yl)-N6-methyl-2-(1-methyl-1H-imidazole-5-carboxamido)-5-oxohexanediamide] | 95
11 | CCC(CC)CNC(=O)Cn1cc(C(F)(F)F)cc(NC(=O)[C@H](CCC(=O)C(=O)NC)NC(=O)c2cncn2C)c1=O [Compound E47, (S)—N1-(1-(2-(2-ethylbutylamino)-2-oxoethyl)-2-oxo-5-(trifluoromethyl)-1,2-dihydropyridin-3-yl)-N6-methyl-2-(1-methyl-1H-imidazole-5-carboxamido)-5-oxohexanediamide] | 80
12 | CCN(CC)C(=O)Cn1cccc(NC(=O)[C@H](CCC(=O)C(=O)NC)NC(=O)c2cncn2C)c1=O [Compound E50, (S)—N1-(1-(2-(diethylamino)-2-oxoethyl)-2-oxo-1,2-dihydropyridin-3-yl)-N6-methyl-2-(1-methyl-1H-imidazole-5-carboxamido)-5-oxohexanediamide] | 300
13 | CNC(=O)C(=O)CC[C@H](NC(=O)c1cncn1C)C(=O)Nc1cccn(CC(=O)NS(C)(=O)=O)c1=O [Compound E51, (S)—N1-methyl-5-(1-methyl-1H-imidazole-5-carboxamido)-N6-(1-(2-(methylsulfonamido)-2-oxoethyl)-2-oxo-1,2-dihydropyridin-3-yl)-2-oxohexanediamide] | 760
14 | CCOC(=O)Cn1cccc(NC(=O)[C@H](CCC(=O)C(=O)NC)NC(=O)c2cncn2C)c1=O [Compound E52, (S)-ethyl 2-(3-(2-(1-methyl-1H-imidazole-5-carboxamido)-6-(methylamino)-5,6-dioxohexanamido)-2-oxopyridin-1(2H)-yl)acetate] | 500
15 | CNC(=O)C(=O)CC[C@H](NC(=O)c1cncn1C)C(=O)Nc1cccn(CC(=O)OCCOC)c1=O [Compound E53, (S)-2-methoxyethyl 2-(3-(2-(1-methyl-1H-imidazole-5-carboxamido)-6-(methylamino)-5,6-dioxohexanamido)-2-oxopyridin-1(2H)-yl)acetate] | 750
16 | CNC(=O)C(=O)CC[C@H](NC(=O)c1cncn1C)C(=O)Nc1cccn(CC(=O)NCOC)c1=O [Compound E54, (S)—N1-(1-(2-(methoxymethylamino)-2-oxoethyl)-2-oxo-1,2-dihydropyridin-3-yl)-N6-methyl-2-(1-methyl-1H-imidazole-5-carboxamido)-5-oxohexanediamide] | 550
17 | CNC(=O)C(=O)CC[C@H](NC(=O)c1cncn1C)C(=O)Nc1cccn(CC(=O)NCN(C)C)c1=O [Compound E55, (S)-N1-(1-(2-((dimethylamino)methylamino)-2-oxoethyl)-2-oxo-1,2-dihydropyridin-3-yl)-N6-methyl-2-(1-methyl-1H-imidazole-5-carboxamido)-5-oxohexanediamide] | 200
18 | CCS(=O)(=O)NC(=O)Cn1cccc(NC(=O)[C@H](CCC(=O)C(=O)NC)NC(=O)c2cncn2C)c1=O [Compound E56, (S)—N1-(1-(2-(ethylsulfonamido)-2-oxoethyl)-2-oxo-1,2-dihydropyridin-3-yl)-N6-methyl-2-(1-methyl-1H-imidazole-5-carboxamido)-5-oxohexanediamide] | 850
19 | CCC(CC)CNC(=O)Cn1cccc(NC(=O)[C@H](CCC(=O)C(=O)NC)NC(=O)OC(C)(C)C)c1=O [Compound E58, (S)-tert-butyl 1-(1-(2-(2-ethylbutylamino)-2-oxoethyl)-2-oxo-1,2-dihydropyridin-3-ylamino)-6-(methylamino)-1,5,6-trioxohexan-2-ylcarbamate] | 280
20 | CCC(CC)CNC(=O)Cn1cccc(NC(=O)[C@H](CCC(=O)C(=O)NC)NC(=O)CCC(=O)O)c1=O [Compound E59, (S)-4-(1-(1-(2-(2-ethylbutylamino)-2-oxoethyl)-2-oxo-1,2-dihydropyridin-3-ylamino)-6-(methylamino)-1,5,6-trioxohexan-2-ylamino)-4-oxobutanoic acid] | 625
